Counter-ions that a name gives are not always drawn. Like-named read-outs stand apart in the source and are kept apart here.
Key:
male CD1 mice = experiment: acetic acid-induced writhing assay after sc administration; format: in vivo, mouse; conditions: for ED50: Mus musculus, 0.5 h, read-out: ED50 (95% CI), mice, sc, inhibition of writhing 30 min after drug administration
MOR [1] = target: T1, MOR (Rattus norvegicus, UniProt P33535); experiment: competition radioligand binding, rat brain membranes, [3H]DAMGO; conditions: for Ki: rat brain membranes, read-out: opioid receptor binding Ki MOR; for increase in MOR binding affinity vs comparator: rat brain, 17b vs 4b, 16a/b vs 7a/b, 22a/b vs 7a, 7b and 9b, 14a vs 14b
T1 construct: Membranes were prepared from Sprague-Dawley rat brains or guinea-pig brains according to the described procedures; tissue Labortierkunde und Laborgenetik, Medizinische Universität Wien; host or cells: Sprague-Dawley rat brain without cerebella

DOR [2] = target: T2, DOR (Homo sapiens, UniProt P41143); experiment: competition radioligand binding, CHO cell membranes expressing human DOR, [3H]diprenorphine
T2 construct: host or cells: CHO (CHO-hDOR)
Method: (§1) Membranes from CHO cells expressing human opioid receptors were prepared in 50 mM Tris-HCl buffer (pH 7.7) according to a previously described procedure.[64] Cells expressing human opioid receptors grown at confluence were removed from the culture plates by scraping, homogenized in 50 mM Tris buffer (pH 7.7), using a Polytron homogenizer, then centrifuged once and washed by an additional centrifugation at 27 000g for 15 min, at 4 °C. The final pellet was resuspended in Tris buffer and stored at −80 °C until use. Protein content of brain and cell membrane preparation homogenates was determined by the method of Bradford using bovine serum albumin as the standard.[65]
(§2) Rat brain membranes were incubated with either [^3H]DAMGO (1 nM, 45 min, 35 °C) or [^3H][Ile^5,6]deltorphin II (0.5 nM, 45 min, 35 °C) for labeling MOR or DOR receptors, respectively. Guinea-pig brain membranes were incubated with [^3H]U69,593 (1 nM, 30 min, 30 °C) for labeling KOR. Binding assays with CHO cell membranes were conducted at 25 °C for 60 min using [^3H]DAMGO (1 nM) or [^3H]diprenorphine (0.2 nM) for labeling MOR or DOR, respectively. Nonspecific binding was determined using 10 μM naloxone (rodent brain) or 1–10 μM of the unlabeled counterpart of each radioligand (CHO cells). Reactions were terminated by rapid filtration through Whatman glass fiber GF/C filters. Filters were washed three times with 5 mL of ice-cold 50 mM Tris-HCl buffer (pH 7.4) using a Brandel M24R cell harvester (Gaithersburg, MD). Radioactivity retained on the filters was counted by liquid scintillation counting using a Beckman Coulter LS6500 (Beckman Coulter Inc., Fullerton, CA). All binding experiments were performed in duplicate and repeated at least three times.
(§3) aDetermined in competition radioligand binding assays using CHO cell membranes expressing
(§4) human MOR and DOR. Values represent the mean ± SEM of three independent experiments each

DOR [3] = target: T3, DOR (Rattus norvegicus, UniProt P33533); experiment: competition radioligand binding, rat brain membranes, [3H][Ile5,6]deltorphin II; conditions: rat brain membranes; read-out: opioid receptor binding Ki DOR
T3 construct: Membranes were prepared from Sprague-Dawley rat brains or guinea-pig brains according to the described procedures; tissue Labortierkunde und Laborgenetik, Medizinische Universität Wien; host or cells: Sprague-Dawley rat brain without cerebella

KOR [4] = target: T4, KOR (Cavia porcellus, UniProt P41144); experiment: competition radioligand binding, guinea-pig brain membranes, [3H]U69,593; conditions: for Ki: guinea-pig brain membranes, read-out: opioid receptor binding Ki KOR
T4 construct: Membranes were prepared from Sprague-Dawley rat brains or guinea-pig brains according to the described procedures; tissue Labortierkunde und Laborgenetik, Medizinische Universität Wien; host or cells: guinea-pig brain without cerebella

KOR [5] = target: T5, KOR (Homo sapiens, UniProt P41145); experiment: [35S]GTPγS binding assay, CHO-hKOR membranes; format: biochemical; conditions: for EC50: [35S]GTPγS, CHO human KOR membranes, read-out: KOR EC50; for Emax: relative to reference full agonist U69,593, read-out: KOR % stim.; for functional profile at KOR (full/partial agonist): partial agonist <85% of the response to U69,593
T5 construct: host or cells: CHO (CHO-hKOR)

DOR [6] = target: T2, DOR; experiment: [35S]GTPγS binding assay, CHO-hDOR membranes; format: biochemical; conditions: for EC50: [35S]GTPγS, CHO human DOR membranes; for Emax: relative to reference full agonist DPDPE, read-out: DOR % stim.; for increased agonist potency at DOR vs MOR: [35S]GTPγS EC50
MOR [7] = target: T6, MOR (Homo sapiens, UniProt P35372); experiment: [35S]GTPγS binding assay, CHO-hMOR membranes; format: biochemical; conditions: for Emax: read-out: MOR % stim.; for functional profile at MOR (full/partial agonist): full agonist ≥85% of the response to DAMGO
T6 construct: host or cells: CHO (CHO-hMOR)

MOR [8] = target: T6, MOR; experiment: competition radioligand binding, CHO cell membranes expressing human MOR, [3H]DAMGO
Method: as §1, §2, §3, §4

[9] = [35S]GTPγS, CHO human MOR membranes, read-out: MOR EC50
[10] = relative to reference full agonist DAMGO

SMILES | ED50 (male CD1 mice) [mg/kg] | Ki (MOR [1]) [nM] | Ki (DOR [2]) [nM] | Ki (DOR [3]) [nM] | Ki (KOR [4]) [nM] | EC50 (KOR [5]) [nM] | Emax (KOR [5]) [%] | EC50 (DOR [6]) [nM] | Emax (DOR [6]) [%] | EC50 (MOR [7]; [9]) [nM] | Emax (MOR [7]; [10]) [%] | Ki (MOR [8]) [nM] | functional profile at KOR (full/partial agonist) (KOR [5]) | increased agonist potency at DOR vs MOR (DOR [6]) | also measured
CO[C@@]12CCC(N[C@@H](CCC(=O)O)C(=O)O)[C@@H]3Oc4c(O)ccc5c4[C@@]31CCN(C)[C@@H]2C5 (stereo in doubt) [Compound 14a, (2S)-2-[(4,5α-Epoxy-3-hydroxy-14β-methoxy-17-methylmorphinan-6β-yl)-amino]pentanedioic Acid Dihydrochloride] | 0.0361 | 1.45 ± 0.09 | 24 ± 11.8 | 9.03 ± 0.7 | 87.2 ± 4.2 | 1170 ± 448 | 68 ± 5 | 10.8 ± 2.1 | 98 ± 3 | 3.11 ± 1.32 | 105 ± 3 | 3.29 ± 0.61 |  |  | increase in MOR binding affinity vs comparator (MOR [1]): 8 times; increased KOR affinity vs 6β analogue 14b (KOR [4]; guinea-pig brain): 14 times
CO[C@@]12CC[C@H](NC(C)C(=O)O)[C@@H]3Oc4c(O)ccc5c4[C@@]31CCN(C)[C@@H]2C5 (stereo in doubt) [Compound 15a, (2S)-2-[(4,5α-Epoxy-3-hydroxy-14β-methoxy-17-methylmorphinan-6α-yl)amino]propanoic Acid Dihydrochloride] |  |  | 14.9 ± 1.9 | 10.4 ± 0.01 | 71.5 ± 9.6 | 254 ± 118 | 67 ± 13 | 24.3 ± 5.3 | 106 ± 7 |  | 100 ± 8 |  |  |  | 
CO[C@@]12CC[C@@H](NC(C)C(=O)O)[C@@H]3Oc4c(O)ccc5c4[C@@]31CCN(C)[C@@H]2C5 (stereo in doubt) [Compound 15b, (2S)-2-[(4,5α-Epoxy-3-hydroxy-14β-methoxy-17-methylmorphinan-6β-yl)amino]propanoic Acid Dihydrochloride] |  |  | 11.5 ± 2.6 | 11.3 ± 0.9 | 142 ± 33 | 1000 ± 192 | 86 ± 2 | 5.46 ± 2.68 | 106 ± 6 |  | 102 ± 9 |  | full agonists | 2–4 times | 
CO[C@@]12CC[C@H](NCC(=O)O)[C@@H]3Oc4c(O)ccc5c4[C@@]31CCN(C)[C@@H]2C5 [Compound 2a] | 0.0357 |  | 18.2 ± 6.1 |  |  | 399 ± 119 | 87 ± 4 |  |  | 1.16 ± 0.59 | 99 ± 4 | 0.79 ± 0.08 | full agonists |  | 
CO[C@@]12CC[C@H](N[C@@H](Cc3ccccc3)C(=O)O)[C@@H]3Oc4c(O)ccc5c4[C@@]31CCN(C)[C@@H]2C5 [Compound 4a] | 0.0311 |  | 3.61 ± 1.2 |  |  | 219 ± 2 | 39 ± 12 | 0.39 ± 0.19 | 102 ± 2 | 0.38 ± 0.19 | 93 ± 8 | 0.81 ± 0.2 | partial agonist |  | increased antinociceptive potency vs comparator (male CD1 mice; writhing assay, 3a vs 3b, 4a vs 4b, 16b vs 7a (so in the source)): 19 times; EC50 (MOR [7]): < 1 nM
CO[C@@]12CC[C@@H](N[C@@H](Cc3ccccc3)C(=O)O)[C@@H]3Oc4c(O)ccc5c4[C@@]31CCN(C)[C@@H]2C5 [Compound 4b] | 0.579 |  | 1.12 ± 0.23 |  |  | 1170 ± 505 | 81 ± 9 | 0.48 ± 0.16 | 94 ± 8 | 6.76 ± 3.16 | 99 | 4.15 ± 0.47 |  | 14 times | functional profile at MOR (full/partial agonist) (MOR [7]): full agonist; MOR % stim. (MOR [7]; [10]): 99 ± 8%
CO[C@@]12CC[C@@H](N[C@@H](CCC(=O)O)C(=O)O)[C@@H]3Oc4c(O)ccc5c4[C@@]31CCN(C)[C@@H]2C5.Cl.Cl [Compound 14b, (2S)-2-[(4,5α-Epoxy-3-hydroxy-14β-methoxy-17-methylmorphinan-6β-yl)amino]pentanedioic Acid Dihydrochloride] |  | 11.6 ± 0.7 | 18 ± 3.5 | 7.64 ± 0.64 | 1250 ± 70 | 2230 ± 238 | 76 ± 0.7 | 4.6 ± 1.79 | 101 ± 3 | 12.7 ± 4.7 | 98 ± 4 | 28.7 ± 7.9 |  | 2–4 times | 
CO[C@@]12CC[C@H](N[C@H](Cc3ccccc3)C(=O)O)[C@@H]3Oc4c(O)ccc5c4[C@@]31CCN(C)[C@@H]2C5 [Compound 17a, (2R)-2-[(4,5α-Epoxy-3-hydroxy-14β-methoxy-17-methyl-morphinan-6α-yl)-amino]-3-phenylpropionic Acid Dihydrochloride] | < 0.02 | 0.61 ± 0.01 | 5.26 ± 0.42 | 3.69 ± 0.59 | 76.4 ± 9.3 | 215 ± 32 | 80 ± 11 | 8.36 ± 0.28 | 95 ± 10 | 0.77 ± 0.24 | 96 ± 4 | 0.85 ± 0.01 | full agonists |  | ED50 (95% CI) (male CD1 mice; mice, inhibition of writhing 30 min after drug administration): 18.1 (8.37–39.2) μg/kg; EC50 (MOR [7]): < 1 nM
CO[C@@]12CC[C@@H](N[C@H](C(=O)N[C@@H](Cc3ccc(O)cc3)C(=O)O)C(C)C)[C@@H]3Oc4c(O)ccc5c4[C@@]31CCN(C)[C@@H]2C5 [Compound 22b, (2S)-2-[[(4,5α-Epoxy-3-hydroxy-14β-methoxy-17-methylmorphinan-6β-yl)amino]-(2S)-3-methylbutyrylamino]-3-(4-hydroxyphenyl)propionic Acid] |  | 0.44 ± 0.01 |  | 1.38 ± 0.22 | 390 ± 49 | 1880 ± 594 | 63 ± 0.1 | 1.56 ± 0.83 | 89 ± 7 | 0.16 ± 0.06 | ~70 |  |  |  | KOR/MOR selectivity ratio (MOR [1]; from Ki, guinea-pig (KOR) and rat (MOR) brain): 886; increase in MOR binding affinity vs comparator (MOR [1]): 4 to 7 times; Ki (DOR [2]; CHO cell membranes expressing human DOR, read-out: Ki DOR): 1.39 ± 0.13 nM; lower KOR affinity vs 6α analogue 22a (KOR [4]; guinea-pig brain): about 6 times; functional profile at DOR (full/partial agonist) (DOR [6]; full agonist ≥85% of the response to DPDPE): full agonists; increased MOR potency than 1 (MOR [7]; [35S]GTPγS EC50): 24 times; selectivity for MOR over DOR (MOR [7]; [35S]GTPγS EC50): 10 times; functional profile at MOR (full/partial agonist) (MOR [7]): partial agonists; Ki (MOR [8]; CHO cell membranes expressing human MOR, read-out: Ki MOR): 0.64 ± 0.07 nM

— article PMC6348443 (Journal of Medicinal Chemistry, 2018)
